Measured values reported in US7294625B2, “Pyrazole compounds” (Ube Industries, Ltd., priority 2002, dated 2007).

Columns and labels:
p38MAP kinase = biological target: T1, p38MAP kinase (Homo sapiens, UniProt Q16539); assay: Enzyme inhibitory test against p38MAP kinase; format: biochemical; details: active type p38MAP kinase, EGFR peptide substrate, [γ-32P]ATP, 30° C. 30 minutes; read-out: p38MAP kinase inhibition IC50 value
T1 construct: purchased Stratagene (p38MAP kinase); Upstate (SKK/MKK6) #206145 (p38MAP kinase); #14-225 or #14-303 (SKK/MKK6)
Procedure: Test Example 1 Enzyme Inhibitory Test Against p38MAP Kinase
(1) Preparatoin of Active Type p38MAP Kinase
An active type p38MAP kinase was prepared by incubation in a reaction solution (25 mM Tris-HCl pH 7.5, 5 mM β-glycerolphosphate, 2 mM DTT, 0.1 mM […], 10 mM MgCl2, 1 mM ATP) containing p38MAP kinase (Stratagene, #206145) and SKK/MKK6 (Upstate, #14-225 or #14-303) at 30° C. for 1 to 3 hours. This enzyme solution was diluted 5 to 10-fold with Stock Buffer (50 mM Tris-HCl pH 7.5, 0.1 mM EGTA, 0.2 mM Orthovanadate, 0.1% 2-ME, 10% glycerol, 0.03% Brij-35, 0.5 μM Microcystin), and preserved under freezing (−80° C.).
(2) Measurement of Inhibitory Activity of p38MAP Kinase
To 34 μL of a reaction solution (25 mM HEPES, pH 7.5, 10 mM Magnesium acetate) containing the active type p38MAP kinase prepared as mentioned above and a substrate (final concentration: […] EGFR; […]) was added 1 μL of DMSO, or a compound to be tested and dissolved in DMSO, then, the mixture was subjected to preincubation at 4° C. for 30 minutes. A reaction was started by adding 5 μL of an ATP solution (400 μM ATP, 1 μCi/μL [γ-^32P]ATP), and reacted at 30° C. for 30 minutes, and then, the reaction was stopped by adding 5 μL of 250 mM H3PO4. 25 μL of the reaction solution was placed on chromatography paper (Whatman, #P81), dried for about 2 minutes, and washed with 75 mM H3PO4. Water was removed by using 95% ethanol, it was transferred to a bial containing liquid scintillation cocktail (available from Nacalai Tesque), and radioactivity was measured. A concentration (IC50 value) of a compound to be tested necessary for inhibiting 50% of phosphrylation (^32P) of the substrate by the enzyme was calculated as compared to that non-treated by the compound to be tested by XL-fit (available from IDBS).

[1] = tested on: cytokine (IL-1β and TNF-α) induced IL-6 production; assay: Inhibition of IL-6 production in rat (in vivo); details: LEW rats, 3 mg/Kg oral, 1 hour before IL-1β/TNF-α i.v., serum IL-6 two hours later
Procedure: Test Example 3 Inhibition of IL-6 Production in Rat (In Vivo)
A cytokine mixed solution of IL-1β and TNF-α was intravenously injected to rats to induce production of IL-6. A mixed solution of IL-1β (available from R&D) (4 μg/ml) and TNF-α (available from R&D) (2 μg/ml) dissolved in PBS was administered to tail vein of LEW series rats (female, body weight: about 140 to 170 g, available from Charles River Japan, Inc.) fasted overnight with a ratio of 1 ml/kg of the body weight. Two hours later, blood was collected from the neck vein under ether anesthesia. The collected blood was centrifuged under the conditions of 20° C. and 10,000×g to separate serum. IL-6 concentration in the serum was measured by using an enzyme-linked immunosorbent assay (ELISA) kit (IL-6 ELISA KIT, available from R&D).
The test compound or the vehicle was orally administered with a dose of 10 ml/kg of the body weight before 1 hour of the injection of the cytokine mixed solution. The control group to which the vehicle was administered and the group of the compound to be tested were each 5 rats per group. An inhibitory ratio of the group of the compound to be tested based on control group was calculated.

[2] = tested on: LPS-induced TNF-α production in human PBMC; assay: Inhibition of TNF-α production in human PBMC (in vitro); format: cell-based; details: LPS 10 μg/ml, 18 hours, TNF-α ELISA, read-out: Inhibitory effect on LPS-induced TNF-α production in human PBMC IC50 value
Procedure: Test Example 2 Inhibition of TNF-α Production in Human PBMC (In Vitro)
Test was carried out according to the method of Welker et al. (Int. Arch. Allergy Immunol., 109, 110-115 (1996).
Heparin-added blood collected from healthy volunteer with consent was underlayed with a specific gravity-separating solution (Lymphoprep; available from Daiichi Pure Chemicals Co., Ltd.), subjected to centrifugation (800×g, 25 minutes), and a mononuclear cell layer was recovered. The obtained mononuclear cells (human PBMC) were washed twice with PBS (available from SIGMA), and resuspended in 1% FCS-containing RPMI aqueous solution (available from GIBCO) so that the cells became 5×10^6 cells/mL. The thus obtained cell suspension was diluted 10-fold with 1% FCS-containing RPMI medium, DMSO (or the compound to be tested) with a final concentration of 0.5% was added thereto, and cultured at 37° C. in 5% CO2 for 1 hour. After that, LPS (derived from E. Coli 055:5B, available from SIGMA) solution prepared by PBS was added so that the final concentration thereof being 10 μg/ml, and cultivation was carried out for further 18 hours. After the cultivation, culture medium was subjected to centrifugation (800×g, 10 minutes), and a concentration of TNF-α produced in the supernatant was measured by an enzyme-linked immunosorbent assay (ELISA) kit (TNF-α ELISA Kit, available from R&D). The concentration (IC50 value) of the test compound for inhibiting 50% of TNF-α production was calcualted by using XL-fit (available from IDBS).

T1 sequence (Q16539 whole entry): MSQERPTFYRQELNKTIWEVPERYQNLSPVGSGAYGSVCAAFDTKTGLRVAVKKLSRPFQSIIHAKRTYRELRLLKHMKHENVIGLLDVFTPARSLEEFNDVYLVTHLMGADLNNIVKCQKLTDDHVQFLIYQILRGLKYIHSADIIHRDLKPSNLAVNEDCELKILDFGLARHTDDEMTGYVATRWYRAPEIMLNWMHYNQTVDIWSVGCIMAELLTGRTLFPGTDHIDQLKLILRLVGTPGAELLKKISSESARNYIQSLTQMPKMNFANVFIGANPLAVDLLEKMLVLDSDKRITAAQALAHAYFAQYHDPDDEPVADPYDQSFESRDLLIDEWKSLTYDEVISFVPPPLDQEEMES

| IC50 (p38MAP kinase) [nM] | Structure (SMILES) | IC50 [2] [nM] | also measured |
| --- | --- | --- | --- |
| 8.9 | O=c1ccc(-n2cc(-c3ccncc3)c(-c3ccc(F)cc3)n2)n[nH]1 [Example 1, 3-(4-Fluorophenyl)-1-(1,6-dihydro-6-oxopyridazin-3-yl)-4-(pyridin-4-yl)-1H-pyrazole] |  |  |
|  | CNc1cc(-c2cn(-c3ccc(=O)[nH]n3)nc2-c2ccc(F)cc2)ccn1 [Example 3, 3-(4-Fluorophenyl)-1-(1,6-dihydro-6-oxopyridazin-3-yl)-4-(2-methylaminopyridin-4-yl)-1H-pyrazole] |  | Rat cytokine induced IL-6 production inhibiting ratio (%) @3 mg/Kg [1]: 81% |
| 2.5 | Nc1cc(-c2cn(-c3cc(N)c(=O)[nH]n3)nc2-c2ccc(F)cc2)ccn1 [Example 4, 1-(5-Amino-1,6-dihydro-6-oxopyridazin-3-yl)-4-(2-aminopyridin-4-yl)-3-(4-fluorophenyl)-1H-pyrazole] | 28 |  |
| 5.4 | CC(=O)Nc1cc(-c2cn(-c3ccc4nncn4n3)nc2-c2ccc(F)cc2)ccn1 [Example 9, 4-(2-Acetylaminopyridin-4-yl)-3-(4-fluorophenyl)-1-([1,2,4]triazolo[4,3-b]pyridazin-6-yl)-1H-pyrazole] |  |  |
| 6.1 | COC(=O)Nc1cc(-c2cn(-c3ccc4nncn4n3)nc2-c2ccc(F)cc2)ccn1 [Example 11, 3-(4-Fluorophenyl)-4-(2-methoxycarbonylaminopyridin-4-yl)-1-([1,2,4]triazolo[4,3-b]pyridazin-6-yl)-1H-pyrazole] |  |  |
| 3.7 | CC(Nc1cc(-c2cn(-c3ccc4nncn4n3)nc2-c2ccc(F)cc2)ccn1)c1ccccc1 (centres unmarked) [Example 18, 3-(4-Fluorophenyl)-4-[2-(1-phenethylamino)pyridin-4-yl]-1-([1,2,4]triazolo[4,3-b]pyridazin-6-yl)-1H-pyrazole] |  |  |
|  | Nc1cc(-c2cn(-c3ccc(=O)[nH]n3)nc2-c2ccccc2)ccn1 [Example 20, 4-(2-Aminopyridin-4-yl)-1-(1,6-dihydro-6-oxopyridazin-3-yl)-3-phenyl-1H-pyrazole] |  | Rat cytokine induced IL-6 production inhibiting ratio (%) @3 mg/Kg [1]: 78% |
| 6.6 | Nc1cc(-c2cn(-c3ccc(=O)[nH]n3)nc2-c2cccc(F)c2)ccn1 [Example 22, 4-(2-Aminopyridin-4-yl)-3-(3-fluorophenyl)-1-(1,6-dihydro-6-oxopyridazin-3-yl)-1H-pyrazole] |  |  |
| 5.9 | Nc1cc(-c2cn(-c3ccc(=O)[nH]n3)nc2-c2cccc(C(F)(F)F)c2)ccn1 [Example 25, 4-(2-Aminopyridin-4-yl)-1-(1,6-dihydro-6-oxopyridazin-3-yl)-3-(3-trifluoromethylphenyl)-1H-pyrazole] |  |  |
| 1.3 | CCNc1cc(-c2cn(-c3ccc(=O)[nH]n3)nc2-c2ccc(F)cc2)ccn1 [Example 27, 4-(2-Ethylaminopyridin-4-yl)-3-(4-fluorophenyl)-1-(1,6-dihydro-6-oxopyridazin-3-yl)-1H-pyrazole] |  |  |
|  | O=c1ccc(-n2cc(-c3ccnc(NCC(F)(F)F)c3)c(-c3ccc(F)cc3)n2)n[nH]1 [Example 28, 3-(4-fluorophenyl)-1-(1,6-dihydro-6-oxopyridazin-3-yl)-4-[2-(2,2,2-trifluoroethyl)aminopyridin-4-yl]-1H-pyrazole] | 7 |  |
| 3.4 | Cc1cc(-n2cc(-c3ccnc(N)c3)c(-c3ccc(F)cc3)n2)n[nH]c1=O [Example 32, 4-(2-Aminopyridin-4-yl)-3-(4-fluorophenyl)-1-(1,6-dihydro-5-methyl-6-oxopyridazin-3-yl)-1H-pyrazole] |  |  |
| 0.2 | O=c1ccc(-n2cc(-c3ccnc(NCC(F)(F)F)c3)c(-c3ccccc3F)n2)n[nH]1 [Example 34, 3-(2-Fluorophenyl)-1-(1,6-dihydro-6-oxopyridazin-3-yl)-4-[2-(2,2,2-trifluoroethyl)aminopyridin-4-yl]-1H-pyrazole] |  |  |
|  | CC(=O)Nc1cc(-c2cn(-c3ccc(=O)[nH]n3)nc2-c2ccccc2F)ccn1 [Example 35, 4-(2-Acetylaminopyridin-4-yl)-3-(2-fluorophenyl)-1-(1,6-dihydro-6-oxopyridazin-3-yl)-1H-pyrazole] | 6 |  |
| 8.7 | Nc1cc(-c2cn(-c3ccc4nncn4n3)nc2-c2ccc(F)c(F)c2)ccn1 [Example 40, 4-(2-Aminopyridin-4-yl)-3-(3,4-difluorophenyl)-1-([1,2,4]triazolo[4,3-b]pyridazin-6-yl)-1H-pyrazole] |  |  |
|  | O=C(Nc1cc(-c2cn(-c3ccc4nncn4n3)nc2-c2ccc(F)cc2)ccn1)C1CC1 [Example 43, 4-(2-Cyclopropylcarbonylaminopyridin-4-yl)-3-(4-fluorophenyl)-1-([1,2,4]triazolo[4,3-b]pyridazin-6-yl)-1H-pyrazole] | 14 |  |
| 4.9 | O=C(Nc1cc(-c2cn(-c3ccc4nncn4n3)nc2-c2ccc(F)cc2)ccn1)C1CCCC1 [Example 45, 4-(2-Cyclopentylcarbonylaminopyridin-4-yl)-3-(4-fluorophenyl)-1-([1,2,4]triazolo[4,3-b]pyridazin-6-yl)-1H-pyrazole] |  |  |
|  | Nc1cc(-c2cn(C3=NNC(=O)CC3)nc2-c2ccccc2F)ccn1 [Example 55, 4-(2-Aminopyridin-4-yl)-3-(2-fluorophenyl)-1-(1,4,5,6-tetrahydro-6-oxopyridazin-3-yl)-1H-pyrazole] | 36 |  |
| 2.1 | CC(=O)Nc1cc(-c2cn(C3=NNC(=O)CC3)nc2-c2ccc(F)cc2)ccn1 [Example 57, 4-(2-Acetylaminopyridin-4-yl)-3-(4-fluorophenyl)-1-(1,4,5,6-tetrahydro-6-oxopyridazin-3-yl)-1H-pyrazole] |  |  |
|  | O=C1CCC(n2cc(-c3ccnc(NCC(F)(F)F)c3)c(-c3ccccc3F)n2)=NN1 [Example 61, 3-(2-Fluorophenyl)-1-(1,4,5,6-tetrahydro-6-oxopyridazin-3-yl)-4-[2-(2,2,2-trifluoroethyl)aminopyridin-4-yl]-1H-pyrazole] | 4 |  |
| 1.3 | CC(=O)Nc1cc(-c2cn(C3=NNC(=O)CC3)nc2-c2ccccc2F)ccn1 [Example 62, 4-(2-Acetylaminopyridin-4-yl)-3-(2-fluorophenyl)-1-(1,4,5,6-tetrahydro-6-oxopyridazin-3-yl)-1H-pyrazole] |  |  |
|  | O=C1CCC(n2cc(-c3ccnc(NC(=O)C4CC4)c3)c(-c3ccccc3F)n2)=NN1 [Example 65, 4-(2-Cyclopropylcarbonylaminopyridin-4-yl)-3-(2-fluorophenyl)-1-(1,4,5,6-tetrahydro-6-oxopyridazin-3-yl)-1H-pyrazole] | 15 |  |
